# Experimental data taken from ChEMBL document CHEMBL4622974, “Leveraging an Open Science Drug Discovery Model to Develop CNS-Penetrant ALK2 Inhibitors for the Treatment of Diffuse Intrinsic Pontine Glioma” (J Med Chem, 2020).
# Tests used:
# [1] = Drug uptake in NOD/SCID mouse at 25 mg/kg, po measured after 0.5 to 6 hrs; assay type: ADME, organism-based; conditions: in vivo
# [2] = Plasma concentration in NOD/SCID mouse at 25 mg/kg, po measured after 0.5 to 6 hrs; assay type: ADME, organism-based; conditions: in vivo
# [3] = Oral bioavailability in BALB/c mouse at 5 mg/kg by LC-MS/MS analysis; assay type: ADME, organism-based; conditions: in vivo
# [4] = Half life in BALB/c mouse at 5 mg/kg, po by LC-MS/MS analysis; assay type: ADME, organism-based; conditions: in vivo
# [5] = Drug level in NOD/SCID mouse brain at 25 mg/kg, po measured at 2 hr post dose on day 14 by LC-MS/MS analysis; assay type: ADME, organism-based; conditions: read-out: Drug uptake
# [6] = Ratio of drug level in brain to plasma in NOD/SCID mouse at 25 mg/kg, po measured at 2 hr post dose on day 14 by LC-MS/MS analysis; assay type: ADME, organism-based; conditions: read-out: BPR
# [7] = target: T1, Activin receptor type-1 (Homo sapiens, UniProt Q04771); assay: Inhibition of human ALK2 using casein as substrate in presence of [gamma-33P]-ATP by radiometric hotspot assay
# T1 sequence (Q04771 whole entry): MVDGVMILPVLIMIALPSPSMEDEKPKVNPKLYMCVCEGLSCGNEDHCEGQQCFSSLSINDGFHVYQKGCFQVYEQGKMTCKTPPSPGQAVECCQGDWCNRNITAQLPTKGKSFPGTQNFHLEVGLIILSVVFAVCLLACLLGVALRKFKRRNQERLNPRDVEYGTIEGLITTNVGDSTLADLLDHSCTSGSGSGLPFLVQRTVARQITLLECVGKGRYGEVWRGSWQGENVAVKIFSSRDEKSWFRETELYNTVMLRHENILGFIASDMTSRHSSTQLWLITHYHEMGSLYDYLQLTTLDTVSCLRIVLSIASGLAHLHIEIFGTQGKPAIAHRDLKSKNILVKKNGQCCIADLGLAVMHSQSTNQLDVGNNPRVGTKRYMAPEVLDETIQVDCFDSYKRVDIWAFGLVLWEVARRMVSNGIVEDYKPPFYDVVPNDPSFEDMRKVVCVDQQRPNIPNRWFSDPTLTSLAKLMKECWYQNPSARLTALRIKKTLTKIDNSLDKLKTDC
# [8] = target: T2, Activin receptor type-1B (Homo sapiens, UniProt P36896); assay: Inhibition of human ALK4 using casein as substrate in presence of [gamma-33P]-ATP by radiometric hotspot assay; assay type: ADME
# T2 sequence (P36896 whole entry): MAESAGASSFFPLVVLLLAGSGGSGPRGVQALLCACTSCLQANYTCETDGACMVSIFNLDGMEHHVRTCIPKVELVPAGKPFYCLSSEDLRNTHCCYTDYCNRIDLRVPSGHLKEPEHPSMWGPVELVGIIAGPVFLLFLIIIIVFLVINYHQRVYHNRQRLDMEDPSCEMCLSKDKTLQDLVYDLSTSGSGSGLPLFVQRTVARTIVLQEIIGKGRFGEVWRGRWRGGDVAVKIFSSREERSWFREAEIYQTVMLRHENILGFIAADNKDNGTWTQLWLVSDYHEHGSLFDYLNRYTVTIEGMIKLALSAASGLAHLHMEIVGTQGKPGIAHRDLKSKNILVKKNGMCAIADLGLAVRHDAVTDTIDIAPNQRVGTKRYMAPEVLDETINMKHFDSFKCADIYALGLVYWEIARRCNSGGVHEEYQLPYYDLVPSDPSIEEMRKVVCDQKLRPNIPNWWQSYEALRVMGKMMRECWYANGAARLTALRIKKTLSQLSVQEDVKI
# [9] = target: T3, TGF-beta receptor type-1 (Homo sapiens, UniProt P36897); assay: Inhibition of human ALK5 using casein as substrate in presence of [gamma-33P]-ATP by radiometric hotspot assay; assay type: ADME
# T3 sequence (P36897 whole entry): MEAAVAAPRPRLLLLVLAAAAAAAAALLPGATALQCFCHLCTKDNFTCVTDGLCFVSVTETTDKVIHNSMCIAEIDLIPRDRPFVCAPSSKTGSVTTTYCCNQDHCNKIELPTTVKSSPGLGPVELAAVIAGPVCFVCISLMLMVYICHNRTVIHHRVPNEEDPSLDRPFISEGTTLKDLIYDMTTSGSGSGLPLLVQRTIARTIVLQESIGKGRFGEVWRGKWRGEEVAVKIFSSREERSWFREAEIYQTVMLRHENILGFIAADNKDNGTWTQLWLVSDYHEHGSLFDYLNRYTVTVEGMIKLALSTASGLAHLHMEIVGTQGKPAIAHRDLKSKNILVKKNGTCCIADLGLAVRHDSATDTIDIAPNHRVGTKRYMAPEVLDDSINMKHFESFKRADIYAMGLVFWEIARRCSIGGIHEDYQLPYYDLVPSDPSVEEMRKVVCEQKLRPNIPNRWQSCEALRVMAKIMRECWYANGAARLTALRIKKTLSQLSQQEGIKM
# [10] = target: T1, Activin receptor type-1; assay: Competitive displacement of PBI-6908 from nanoluciferase-fused ALK2 (unknown origin) expressed in HEK293 cells incubated for 2 hrs by NanoBRET NanoGlo substrate based NanoBRET assay; assay type: cell-based
# [11] = target: T3, TGF-beta receptor type-1; assay: Inhibition of recombinant human ALK5 expressed in HEK293 cells transfected with CAGA-luciferase and Renilla luciferase reporter after 24 hrs by dual luciferase reporter assay; assay type: cell-based
# [12] = target: Voltage-gated inwardly rectifying potassium channel KCNH2 (Homo sapiens, UniProt Q12809); assay: Inhibition of human ERG expressed in HEK293 cells after 5 mins by IonWorks barracuda patch clamp method; assay type: cell-based
# [13] = Stability in CD1 mouse liver microsomes assessed as compound remaining at 1 uM incubated for 60 mins by LC/MS analysis; assay type: ADME, Microsome; conditions: read-out: Stability
# [14] = Stability in human liver microsomes assessed as compound remaining at 1 uM incubated for 60 mins by LC/MS analysis; assay type: ADME, Microsome; conditions: read-out: Stability
# [15] = Apparent permeability across apical to basolateral side in human Caco2 cells at 5 uM after 120 mins by LC-MS/MS analysis; conditions: Caco-2
# [16] = Apparent permeability across basolateral to apical side in human Caco2 cells at 5 uM after 120 mins by LC-MS/MS analysis; assay type: ADME, cell-based; conditions: Caco-2
# [17] = Efflux ratio of apparent permeability across basolateral to apical over apical to basolateral side in human Caco2 cells at 5 uM incubated for 2 hrs by LC/MS/MS analysis; conditions: Caco-2
# [18] = Half life in CD1 mouse liver microsomes at 1 uM incubated for 60 mins by LC/MS analysis; assay type: ADME, Microsome
# [19] = Half life in human liver microsomes at 1 uM incubated for 60 mins by LC/MS analysis; assay type: ADME, Microsome
# [20] = Clearance in CB17 SCID mouse at 2 mg/kg, iv after 0.25 to 24 hrs by LC/MS/MS method; assay type: ADME, organism-based; conditions: in vivo
# [21] = Volume of distribution at steady state in CB17 SCID mouse at 2 mg/kg, iv after 0.25 to 24 hrs by LC/MS/MS method; assay type: ADME, organism-based; conditions: in vivo, read-out: Vdss
# [22] = Half life in CB17 SCID mouse at 10 mg/kg, po after 0.25 to 24 hrs by LC/MS/MS method; assay type: ADME, organism-based; conditions: in vivo
# [23] = Cmax in CB17 SCID mouse at 10 mg/kg, po after 0.25 to 24 hrs by LC/MS/MS method; assay type: ADME, organism-based; set-up: dose 10 mg/kg, route oral; conditions: in vivo
# [24] = AUCinfinity in CB17 SCID mouse at 10 mg/kg, po after 0.25 to 24 hrs by LC/MS/MS method; assay type: ADME, organism-based; set-up: dose 10 mg/kg, time infinity, route oral; conditions: in vivo
# [25] = Oral bioavailability in CB17 SCID mouse at 10 mg/kg after 0.25 to 24 hrs by LC/MS/MS method; assay type: ADME, organism-based; conditions: in vivo
# [26] = Ratio of drug level in brain to plasma in CB17 SCID mouse at 10 mg/kg, po measured at 4 h; assay type: ADME, organism-based; conditions: brain and plasma, read-out: BPR
# [27] = Toxicity in CB17 SCID mouse assessed as induction of adverse effect at 2 mg/kg, iv; assay type: organism-based; conditions: in vivo
# [28] = Toxicity in CB17 SCID mouse assessed as induction of adverse effect at 10 mg/kg, po; assay type: organism-based; conditions: in vivo
# Voltage-gated inwardly rectifying potassium channel KCNH2, sequence (Q12809 whole entry): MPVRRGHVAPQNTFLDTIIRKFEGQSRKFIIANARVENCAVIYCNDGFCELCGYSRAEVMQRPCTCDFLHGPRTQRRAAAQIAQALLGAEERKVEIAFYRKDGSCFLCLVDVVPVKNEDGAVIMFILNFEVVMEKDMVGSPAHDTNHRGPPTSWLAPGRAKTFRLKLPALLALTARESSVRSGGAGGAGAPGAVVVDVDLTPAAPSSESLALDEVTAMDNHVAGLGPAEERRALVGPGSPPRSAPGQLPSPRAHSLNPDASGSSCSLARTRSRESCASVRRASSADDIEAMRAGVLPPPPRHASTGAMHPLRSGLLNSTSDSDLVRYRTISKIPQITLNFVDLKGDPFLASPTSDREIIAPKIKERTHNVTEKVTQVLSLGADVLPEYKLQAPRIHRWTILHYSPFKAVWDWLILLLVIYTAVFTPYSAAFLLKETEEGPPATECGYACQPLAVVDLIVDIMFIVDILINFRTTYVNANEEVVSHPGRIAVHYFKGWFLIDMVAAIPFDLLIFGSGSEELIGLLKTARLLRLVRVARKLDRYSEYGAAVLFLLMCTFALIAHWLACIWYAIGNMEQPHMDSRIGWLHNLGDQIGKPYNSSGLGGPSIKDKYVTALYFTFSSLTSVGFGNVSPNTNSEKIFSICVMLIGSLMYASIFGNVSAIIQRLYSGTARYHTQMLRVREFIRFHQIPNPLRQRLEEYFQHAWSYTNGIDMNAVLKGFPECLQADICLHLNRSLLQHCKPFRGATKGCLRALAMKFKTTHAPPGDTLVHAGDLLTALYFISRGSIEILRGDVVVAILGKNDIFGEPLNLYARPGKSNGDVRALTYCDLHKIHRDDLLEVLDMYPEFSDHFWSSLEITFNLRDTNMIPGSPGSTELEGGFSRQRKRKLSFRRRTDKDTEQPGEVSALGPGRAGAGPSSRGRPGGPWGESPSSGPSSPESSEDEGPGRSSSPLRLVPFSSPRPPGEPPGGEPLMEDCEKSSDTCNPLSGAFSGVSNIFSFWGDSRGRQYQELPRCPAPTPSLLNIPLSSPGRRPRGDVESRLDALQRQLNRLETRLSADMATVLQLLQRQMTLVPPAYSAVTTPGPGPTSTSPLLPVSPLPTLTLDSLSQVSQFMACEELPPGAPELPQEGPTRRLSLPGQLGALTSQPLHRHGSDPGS
structure (smiles),measurement,setting,value
COc1cc(-c2cncc(-c3ccc(N4CCNCC4)cc3)c2C)cc(OC)c1OC.CS(=O)(=O)O,Drug uptake,[1],Active
COc1cc(-c2cncc(-c3ccc(N4CCNCC4)cc3)c2C)cc(OC)c1OC,concentration,[2],9.11 µM
COc1cc(-c2cc(-c3ccc(N4CCNCC4)cc3)cnc2C)cc(OC)c1OC,bioavailability,[3],75%
same,half-life,[4],3.91 h
same,concentration at 2 h,[5],10.9 µM
same,Kp at 2 h,[6],0.8
COc1cc(-c2cncc(-c3ccc(C4=CCNCC4)cc3)c2C)cc(OC)c1OC,IC50,[7],5 nM
same,IC50,[8],> 2000 nM
same,IC50,[9],> 5000 nM
same,IC50,[10],47 nM
same,IC50,[11],7530 nM
same,IC50,[12],3400 nM
same,"remaining at 1 h, 1 µM",[13],73.9%
same,"remaining at 1 h, 1 µM",[14],68%
same,"Papp A→B at 2 h, 5 µM",[15],2.9 ×10⁻⁶ cm/s
same,"Papp B→A at 2 h, 5 µM",[16],3.9 ×10⁻⁶ cm/s
same,"efflux ratio at 2 h, 5 µM",[17],1.3
same,half-life at 1 µM,[18],> 1 h
same,half-life at 1 µM,[19],> 1 h
same,clearance,[20],3.84 mL/min/kg
same,Vd,[21],1.66 L/kg
same,half-life,[22],6.02 h
same,Cmax,[23],6.62 µM
same,AUC(0-inf),[24],82.5 µM·h
same,bioavailability,[25],79%
same,Kp at 4 h,[26],0.43
same,Activity,[27],Non-Toxic
same,Activity,[28],Non-Toxic
